Experimental data as given in PMC6218659, “Structures of DPAGT1 Explain Glycosylation Disease Mechanisms and Advance TB Antibiotic Design” (Cell, 2018).
Values after ≈ are worked out from the molar mass of the structure shown. Like-named read-outs stand apart in the source and are kept apart here.

What was measured:
[1] = test system: B. subtilis EC1524; experiment: Micro-broth dilution and drop plate antimicrobial susceptibility test; format: cell-based, Bacillus subtilis; details: for IC50 / MBC / MIC: Bacillus subtilis; for Relative Therapeutic Index (RTI), B. subtilis EC1524: minimal lethal dose / MIC, 800 μg mL-1 used for >400
Protocol: (§1) In a sterile 96-well plate, serial dilutions were made with the test substance to final volume of 50 μl. Inoculum was then prepared in Mueller-Hinton broth to 0.5 McFarland and diluted before adding 50 μl to the well to make ∼1x10^5 CFU/ml. The culture plate was incubated at 35 °C for 20-24 hrs. A positive growth control and sterility wells were also prepared along with the culture wells. Absorbance at OD600 was taken using BMG Labtech SPECTROstar Omega spectrophotometer. MIC is determined by the lowest concentration without growth. IC50 is determined from plotting a dose-response curve, see Data Analysis below. To determine the MBC, using a multi-channel pipette, 1 μl of culture broth was taken from the same 96-well microdilution growth plate and carefully inoculated on surface of MH agar plate. The plate is then incubated for additional 20 hrs. at 35 °C. The MBC value is the lowest concentration without observed growth on the agar.

[2] = test system: B. cereus ATCC11778; experiment: as above; format: cell-based, Bacillus cereus; details: for IC50 / MBC / MIC: Bacillus cereus; for Relative Therapeutic Index (RTI), B. cereus NRRL 11778: minimal lethal dose / MIC, 800 μg mL-1 used for >400
Protocol: as §1

[3] = test system: E. coli ATCC25922; experiment: as above; format: cell-based; details: Escherichia coli
Protocol: as §1

[4] = test system: P. aeruginosa ATCC27853; experiment: as above; format: cell-based; details: Pseudomonas aeruginosa
Protocol: as §1

[5] = test system: S. aureus ATCC29219; experiment: as above; format: cell-based; details: Staphylococcus aureus
Protocol: as §1

[6] = test system: Mtb H37Rv ATCC27294; experiment: Minimum inhibitory concentrations testing against Mtb; format: cell-based, Mycobacterium tuberculosis; details: for MIC: Mycobacterium tuberculosis; for Relative Therapeutic Index (RTI), Mtb H37RV a / Relative Therapeutic Index (RTI), Mtb H37RV b: minimal lethal dose / MIC, 800 μg mL-1 used for >400; for Relative Therapeutic Index (RTI), Mtb H37RV a: 7H9/ADC/Tw; for Relative Therapeutic Index (RTI), Mtb H37RV b: GAST/Fe
[7] = test system: HEK293 cells; experiment: Cell proliferation assay (MTS); format: cell-based, human; details: for LD50 values, HEK293: MTS cell proliferation assay, 24 hrs, highest concentration 400 µg mL-1; for Minimal Lethal Dose, HEK 293: serial 2-fold dilutions (Table S6)
Protocol: (§2) In sterile 96-well plate, each well was seeded with ∼1x10^5 cells. The cells are then grown confluent overnight in 100 μl DMEM with 10% FBS. The medium is replenished with DMEM with 2% FBS and added vehicle control or test substance the next day. For test substance in methanol, stock was added to 25 μl of DMEM with 2% FBS or PBS and placed in the laminar flow hood to let the methanol evaporate (about 1-3 hrs). Once the methanol has evaporated, DMEM with 2% FBS was added to final volume of 100 μl of desired test concentration. […] Cells are grown for additional 24 hrs. The cell viability was determined by using Promega CellTiter 96^© AQueous One Solution Cell Proliferation Assay (3-(4,5-dimethylthiazol-2-yl)-5-(3-carboxymethoxyphenyl)-2-(4-sulfophenyl)-2H-tetrazolium, inner salt; MTS) System following the manufacture protocol.

[8] = test system: HepG2 cells; experiment: Cell proliferation assay (MTS); format: cell-based, human; details: for LD50 values, HepG2: MTS cell proliferation assay, 24 hrs, highest concentration 400 µg mL-1; for Minimal Lethal Dose, HepG2: serial 2-fold dilutions (Table S6)
Protocol: as §2

[9] = test system: Raji cells; experiment: Cell proliferation assay (MTS); format: cell-based, human; details: 24 hrs
Protocol: as §2

[10] = EC1524, read-out: Minimal Inhibitory Concentration, B. subtilis EC1524
[11] = ATCC 11778 / NRRL11778, read-out: Minimal Inhibitory Concentration, B. cereus NRRL 11778
[12] = 168 h, read-out: 1-week MIC in 7H9/ADC/Tw
[13] = 168 h, read-out: 1-week MIC in GAST/Fe
[14] = 168 h, read-out: Minimal Inhibitory Concentration, Mtb H37RV a
[15] = 168 h, read-out: Minimal Inhibitory Concentration, Mtb H37RV b
[16] = 168 h, Mtb H37Rv, minimal growth medium, read-out: 1-week MIC in GAST/Fe
[17] = 168 h, Mtb H37Rv, rich 7H9-based growth medium, read-out: 1-week MIC in 7H9/ADC/Tw

Structure (SMILES)	IC50 ([1]; EC1524)	MBC ([1]; EC1524)	MIC ([1]; EC1524)	MIC [1, 10]	Relative Therapeutic Index (RTI), B. subtilis EC1524 [1]	IC50 ([2]; ATCC11778)	MBC ([2]; ATCC11778)	MIC ([2]; ATCC11778)	MIC [2, 11]	Relative Therapeutic Index (RTI), B. cereus NRRL 11778 [2]	IC50 [3]	MBC [3]	MIC [3]	IC50 [4]	MBC [4]	MIC [4]	IC50 [5]	LD50 values, HEK293 [7]	LD50 values, HepG2 [8]	LD50 values, Raji [9]	further results
CCCCCCC(=O)N[C@H]1[C@H](O[C@H]2O[C@H](CO)[C@@H](O)[C@H](O)[C@H]2NC(=O)CCCCCC)O[C@H](C[C@@H](O)[C@H]2O[C@@H](n3ccc(=O)[nH]c3=O)[C@H](O)[C@@H]2O)[C@H](O)[C@@H]1O [TUN-7,7, Di-N-heptanoyl tunicamycin]	3.12 ± 1.04 µg/mL (≈ 3.95 µM)	> 50 µg/mL	5.2 ± 1.8 µg/mL (≈ 6.58 µM)	6.25 µg/mL (≈ 7.9 µM)	128	13.3 µg/mL (≈ 16.9 µM)	> 200 µg/mL	83 ± 29 µg/mL (≈ 105 µM)	100 µg/mL (≈ 126 µM)	8	131 µg/mL (≈ 166 µM)	> 400 µg/mL	330 ± 120 µg/mL (≈ 417 µM)	62.4 µg/mL (≈ 79 µM)	> 400 µg/mL	83 ± 29 µg/mL (≈ 105 µM)	80.5 µg/mL (≈ 102 µM)	N/A (N/A = not available. No or low cytotoxicity observed at highest, saturating concentration tested (400 µg mL-1))	N/A (N/A = not available. No or low cytotoxicity observed at highest, saturating concentration tested (400 µg mL-1))	431.10 ± 241.81 µg/mL	MBC [5]: > 400 µg/mL; MIC [5]: 170 ± 60 µg/mL (≈ 215 µM); MIC [6, 12]: 5 ± 3.5 µg/mL; MIC [6, 13]: 1.6 ± 1.8 µg/mL; MIC [6, 14]: 5 µg/mL; MIC [6, 15]: 1.6 µg/mL; Relative Therapeutic Index (RTI), Mtb H37RV a [6]: 160; Relative Therapeutic Index (RTI), Mtb H37RV b [6]: 500; Minimal Lethal Dose, HEK 293 [7]: > 400 µg/mL; Minimal Lethal Dose, HepG2 [8]: > 400 µg/mL
C[C@@H](O)[C@H]1C(=O)N2C(C(=O)O)=C(S[C@@H]3CN[C@H](C(=O)N(C)C)C3)[C@H](C)[C@H]12 [meropenem, reference compound]	–	–	–	–	–	–	–	–	–	–	–	–	–	–	–	–	–	–	–	–	MIC ([6]; Mtb H37Rv, with clavulanate at a fixed concentration of 100 μM, read-out: MIC concentration for control): 2 µM
CC(C)(C)OC(=O)N[C@H]1[C@H](O[C@H]2O[C@H](CO)[C@@H](O)[C@H](O)[C@H]2NC(=O)OC(C)(C)C)O[C@H](C[C@@H](O)[C@H]2O[C@@H](n3ccc(=O)[nH]c3=O)[C@H](O)[C@@H]2O)[C@H](O)[C@@H]1O [TUN-Boc,Boc, 10',2"-Di-N-Boc-α-D-glucosamine-(1”-11')-tunicamyl uracil]	–	–	–	–	–	–	–	–	–	–	–	–	–	–	–	–	–	N/A (N/A = not available. No or low cytotoxicity observed at highest, saturating concentration tested (400 µg mL-1))	N/A (N/A = not available. No or low cytotoxicity observed at highest, saturating concentration tested (400 µg mL-1))	608.9 ± 394.9 µg/mL	MIC [6, 16]: > 60 µg/mL; MIC [6, 17]: > 60 µg/mL
CCCCCCCCCCCC(=O)N[C@H]1[C@H](O[C@H]2O[C@H](CO)[C@@H](O)[C@H](O)[C@H]2NC(=O)CCCCCCCCCCC)O[C@H](C[C@@H](O)[C@H]2O[C@@H](n3ccc(=O)[nH]c3=O)[C@H](O)[C@@H]2O)[C@H](O)[C@@H]1O [TUN-12,12, Di-N-dodecanoyl-tunicamycin]	58.9 µg/mL (≈ 63.3 µM)	> 200 µg/mL	83 ± 29 µg/mL (≈ 89.1 µM)	100 µg/mL (≈ 107 µM)	8	1.4 ± 0.47 µg/mL (≈ 1.5 µM)	> 200 µg/mL	42 ± 14 µg/mL (≈ 45.1 µM)	50 µg/mL (≈ 53.7 µM)	16	182 µg/mL (≈ 195 µM)	> 400 µg/mL	330 ± 120 µg/mL (≈ 354 µM)	81.7 µg/mL (≈ 87.8 µM)	> 400 µg/mL	170 ± 6 µg/mL (≈ 183 µM)	61.9 µg/mL (≈ 66.5 µM)	N/A (N/A = not available. No or low cytotoxicity observed at highest, saturating concentration tested (400 µg mL-1))	N/A (N/A = not available. No or low cytotoxicity observed at highest, saturating concentration tested (400 µg mL-1))	81.29 ± 30.20 µg/mL	MBC [5]: > 400 µg/mL; MIC [5]: 170 ± 60 µg/mL (≈ 183 µM); MIC [6, 12]: 18.7 ± 5.4 µg/mL; MIC [6, 13]: 6.9 ± 6.2 µg/mL; MIC [6, 14]: 18.7 µg/mL; MIC [6, 15]: 6.9 µg/mL; Relative Therapeutic Index (RTI), Mtb H37RV a [6]: 43; Relative Therapeutic Index (RTI), Mtb H37RV b [6]: 116; Minimal Lethal Dose, HEK 293 [7]: > 400 µg/mL; Minimal Lethal Dose, HepG2 [8]: > 400 µg/mL
CC(=O)N[C@H]1[C@H](O[C@H]2O[C@H](CO)[C@@H](O)[C@H](O)[C@H]2NC(C)=O)O[C@H](C[C@@H](O)[C@H]2O[C@@H](n3ccc(=O)[nH]c3=O)[C@H](O)[C@@H]2O)[C@H](O)[C@@H]1O [TUN-Ac,Ac, α-D-N-acetylglucosamine-(1”-11')-N-acetyl tunicamyl uracil]	–	–	–	–	–	–	–	–	–	–	–	–	–	–	–	–	–	N/A (N/A = not available. No or low cytotoxicity observed at highest, saturating concentration tested (400 µg mL-1))	N/A (N/A = not available. No or low cytotoxicity observed at highest, saturating concentration tested (400 µg mL-1))	212.30 ± 51.48 µg/mL	MIC [6, 16]: 21.3 ± 1.8 µg/mL; MIC [6, 17]: ≥ 60 µg/mL
